{"source": "patent US12281149B2", "about": "“Modulators of G-protein coupled receptors” (priority 2021, dated 2025)", "type_in_all_cases": "cell-based", "key": {"GLP-1 receptor [1]": {"molecular_target": "T1, GLP-1 receptor (Homo sapiens, UniProt P43220)", "T1 sequence (P43220 24-463)": "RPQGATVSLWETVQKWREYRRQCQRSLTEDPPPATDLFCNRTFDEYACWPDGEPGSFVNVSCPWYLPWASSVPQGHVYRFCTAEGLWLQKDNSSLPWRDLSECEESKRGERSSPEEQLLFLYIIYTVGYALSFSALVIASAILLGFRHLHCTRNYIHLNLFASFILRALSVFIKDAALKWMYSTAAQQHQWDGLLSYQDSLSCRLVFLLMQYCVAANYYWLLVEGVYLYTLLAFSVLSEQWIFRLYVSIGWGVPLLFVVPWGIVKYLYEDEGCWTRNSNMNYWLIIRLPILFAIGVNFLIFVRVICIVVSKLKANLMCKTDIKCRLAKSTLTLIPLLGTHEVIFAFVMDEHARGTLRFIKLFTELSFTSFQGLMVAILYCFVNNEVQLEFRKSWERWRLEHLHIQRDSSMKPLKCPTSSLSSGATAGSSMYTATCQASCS", "assay": "HitHunter cAMP assay, GLP-1 receptor", "conditions": "for EC50: CHO cells stably expressing human GLP-1 receptor, cAMP accumulation, 30 min, read-out: EC50 GLP-1R; for Emax: CHO cells, cAMP, normalized to maximum signal from GLP-1 (high) and DMSO (low), read-out: Emax GLP-1R", "procedure": "CAMP accumulation was measured in Chinese hamster ovary (CHO) cells stably expressing the human GLP-1 receptor or GIP receptor using the HitHunter CAMP Assay for Small Molecules Kit (Eurofins). Briefly, cells were grown in Ham's F12 Nutrient Mix with 10% FBS and lifted with Cell dissociation buffer, Enzyme free, PBS based (ThermoFisher). Cells were pelleted and resuspended in Hank's buffered saline solution with 10 mM Hepes and 625 μM 3-isobutyl-1-methylxanthine. The antibody reagent was then added to cells at a 1:2 ratio and 5 μL of mixture was seeded in 384-well small volume white assay plates, at 10,000 cells/well. Cells were then treated with 50 nl compound in DMSO using an ECHO 550 acoustic dispenser (Labcyte) in a 20-point dose response format in triplicate for 30 min. Cells were the lysed and detection reagents added according to the manufacturer's protocol. After overnight incubation, luminescence was measured using a Perkin Elmer Envision plate reader. Raw data was normalized to the maximum signal from GLP-1 or GIP (high) and DMSO (low). Dose response curves were analyzed using GraphPad Prism 9.0."}, "GIP receptor [2]": {"molecular_target": "T2, GIP receptor (Homo sapiens, UniProt P48546)", "T2 sequence (P48546 22-466)": "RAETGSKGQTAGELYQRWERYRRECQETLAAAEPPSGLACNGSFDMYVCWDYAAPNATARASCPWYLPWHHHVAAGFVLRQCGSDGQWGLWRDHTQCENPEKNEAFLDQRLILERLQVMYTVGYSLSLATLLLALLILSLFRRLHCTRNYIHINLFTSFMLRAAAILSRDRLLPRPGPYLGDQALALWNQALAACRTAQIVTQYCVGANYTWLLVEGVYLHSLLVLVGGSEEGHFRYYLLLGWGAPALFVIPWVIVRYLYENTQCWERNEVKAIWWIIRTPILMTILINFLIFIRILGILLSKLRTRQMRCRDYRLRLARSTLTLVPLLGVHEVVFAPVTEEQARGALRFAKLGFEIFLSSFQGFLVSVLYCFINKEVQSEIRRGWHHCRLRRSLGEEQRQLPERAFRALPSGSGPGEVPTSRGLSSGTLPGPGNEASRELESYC", "assay": "HitHunter cAMP assay, GIP receptor", "conditions": "for EC50: CHO cells stably expressing GIP receptor, cAMP accumulation, 30 min, read-out: EC50 GIP-1R; for Emax: CHO cells, cAMP, normalized to maximum signal from GIP (high) and DMSO (low), read-out: Emax GIP-1R"}, "GIP receptor [3]": {"molecular_target": "T2, GIP receptor", "assay": "PathHunter β-arrestin assay, GIP receptor", "set-up": "host or cells: PathHunter CHO-K1 GIPR β-Arrestin Cell Line", "conditions": "β-arrestin-2 recruitment, PathHunter CHO-K1 GIPR β-Arrestin Cell Line, 90 min at 37° C.; normalized to GIP; read-out: GIPR β Arrestin EC50", "procedure": "β-arrestin-2 recruitment for GLP-1 receptor or GIP receptor was measured using the DiscoverX PathHunter Detection Kit and PathHunter® CHO-K1 GLPIR β-Arrestin Cell Line or PathHunter® CHO-K1 GIPR β-Arrestin Cell Line, respectively). Briefly, cells were grown in Ham's F12 Nutrient Mix with 10% FBS and lifted with Cell dissociation buffer, Enzyme free, PBS based (ThermoFisher). Harvested cells were pelleted and resuspended in Assay Complete Cell Plating Reagent 2 and 5000 cells per well were plated in tissue culture treated 384-well small volume white assay plates. Plates were then incubated at 37° C. and 5% CO2 overnight. The media was then replaced with fresh Assay Complete Cell Plating Reagent 2. Cells were then treated with 10 nl compound in DMSO using an ECHO 550 acoustic dispenser (Labcyte) in a 20-point dose response format in duplicate for 90 min at 37° C. The assay was then completed according to the manufacturer's instructions. Luminescence was measured using a Perkin Elmer Envision plate reader. Raw data was normalized to the maximum signal from GLP-1 or GIP (high) and DMSO (low). Dose response curves were analyzed using GraphPad Prism 9.0."}, "GLP-1 receptor [4]": {"molecular_target": "T1, GLP-1 receptor", "assay": "PathHunter β-arrestin assay, GLP-1 receptor", "set-up": "host or cells: PathHunter CHO-K1 GLP1R β-Arrestin Cell Line", "conditions": "β-arrestin-2 recruitment, PathHunter CHO-K1 GLP1R β-Arrestin Cell Line, 90 min at 37° C.; normalized to GLP-1; read-out: GLP-1R β Arrestin EC50"}}, "note": "*1 amine or outer side, *2 acyl side, *3 side chain or, on linkers, in order; H or OH if unused. Where a SMILES comes first, the peptide text is derived from it. Side-chain parts run from the residue outwards. [ ]: non-standard residue; d: D form. The star is where a group is joined. Isobutyryl(2-(3-CN-5-F-Ph)) = CC(C)(C(=O)*)c1cc(F)cc(C#N)c1; Cyclopropanecarbonyl(1-Ph) = O=C(C1(c2ccccc2)CC1)*; C20 diacid = O=C(O)CCCCCCCCCCCCCCCCCCC(=O)*; γGlu = O=C(O)[C@H](CCC(=O)[*:2])N[*:1]; AEEA = NCCOCCOCC(=O)O; Aib = CC(C)(N)C(=O)O; GABA = NCCCC(=O)O; βAla = NCCC(=O)O", "data": [{"smiles": "CC[C@H](C)[C@H](NC(=O)[C@H](CC(C)C)NC(=O)[C@H](Cc1c[nH]c2ccccc12)NC(=O)[C@H](CCC(N)=O)NC(=O)[C@@H](NC(=O)[C@H](Cc1ccccc1)NC(=O)[C@H](C)NC(=O)[C@H](CCCCNC(=O)COCCOCCNC(=O)COCCOCCNC(=O)CC[C@H](NC(=O)CCCCCCCCCCCCCCCCCCC(=O)O)C(=O)O)NC(=O)[C@H](CCC(N)=O)NC(=O)[C@H](C)NC(=O)[C@@H](NC(=O)[C@H](CCCCN)NC(=O)[C@H](CC(=O)O)NC(=O)[C@H](CC(C)C)NC(=O)C(C)(C)NC(=O)[C@@H](NC(=O)[C@H](CO)NC(=O)[C@H](Cc1ccc(O)cc1)NC(=O)[C@H](CC(=O)O)NC(=O)[C@H](CO)NC(=O)[C@@H](NC(=O)[C@H](Cc1ccccc1)NC(=O)[C@@H](NC(=O)CNC(=O)[C@H](CCC(=O)O)NC(=O)CCNC(=O)C1(c2ccccc2)CC1)[C@@H](C)O)[C@@H](C)O)[C@@H](C)CC)[C@@H](C)CC)C(C)C)C(=O)N[C@@H](C)C(=O)NCC(=O)NCC(=O)N1CCC[C@H]1C(=O)N[C@@H](CO)C(=O)N[C@@H](CO)C(=O)NCC(=O)N[C@@H](C)C(=O)N1CCC[C@H]1C(=O)N1CCC[C@H]1C(=O)N1CCC[C@H]1C(=O)N[C@@H](CO)C(N)=O", "note": "[Compound 199] ({Cyclopropanecarbonyl(1-Ph)-βAla}-EGTFTSDYSI[Aib]LDKIAQK([AEEA-AEEA-γGlu-C20 diacid])AFVQWLIAGGPSSGAPPPS-NH2)", "values": [{"measurement": "EC50", "setting": "GLP-1 receptor [1]", "value": "1 to 10", "unit": "nM"}, {"measurement": "Emax", "setting": "GLP-1 receptor [1]", "value": 100, "unit": "%"}, {"measurement": "EC50", "setting": "GIP receptor [2]", "value": "10 to 100", "unit": "nM"}, {"measurement": "Emax", "setting": "GIP receptor [2]", "value": 102, "unit": "%"}, {"measurement": "EC50", "setting": "GIP receptor [3]", "value": "> 1000", "unit": "nM"}, {"measurement": "EC50", "setting": "GLP-1 receptor [4]", "value": "> 1000", "unit": "nM"}]}, {"smiles": "CC[C@H](C)[C@H](NC(=O)[C@H](CC(C)C)NC(=O)[C@H](Cc1c[nH]c2ccccc12)NC(=O)[C@H](CCC(N)=O)NC(=O)[C@@H](NC(=O)[C@H](Cc1ccccc1)NC(=O)[C@H](C)NC(=O)[C@H](CCCCNC(=O)COCCOCCNC(=O)COCCOCCNC(=O)CC[C@H](NC(=O)CCCCCCCCCCCCCCCCCCC(=O)O)C(=O)O)NC(=O)[C@H](CCC(N)=O)NC(=O)[C@H](C)NC(=O)[C@@H](NC(=O)[C@H](CCCCN)NC(=O)[C@H](CC(=O)O)NC(=O)[C@H](CC(C)C)NC(=O)C(C)(C)NC(=O)[C@@H](NC(=O)[C@H](CO)NC(=O)[C@H](Cc1ccc(O)cc1)NC(=O)[C@H](CC(=O)O)NC(=O)[C@H](CO)NC(=O)[C@@H](NC(=O)[C@H](Cc1ccccc1)NC(=O)[C@@H](NC(=O)CNC(=O)[C@H](CCC(=O)O)NC(=O)CCCNC(=O)C(C)(C)c1cc(F)cc(C#N)c1)[C@@H](C)O)[C@@H](C)O)[C@@H](C)CC)[C@@H](C)CC)C(C)C)C(=O)N[C@@H](C)C(=O)NCC(=O)NCC(=O)N1CCC[C@H]1C(=O)N[C@@H](CO)C(=O)N[C@@H](CO)C(=O)NCC(=O)N[C@@H](C)C(=O)N1CCC[C@H]1C(=O)N1CCC[C@H]1C(=O)N1CCC[C@H]1C(=O)N[C@@H](CO)C(N)=O", "note": "[Compound 200] ({Isobutyryl(2-(3-CN-5-F-Ph))-GABA}-EGTFTSDYSI[Aib]LDKIAQK([AEEA-AEEA-γGlu-C20 diacid])AFVQWLIAGGPSSGAPPPS-NH2)", "values": [{"measurement": "EC50", "setting": "GLP-1 receptor [1]", "value": "0.1 to 1", "unit": "nM"}, {"measurement": "Emax", "setting": "GLP-1 receptor [1]", "value": 104, "unit": "%"}, {"measurement": "EC50", "setting": "GIP receptor [2]", "value": "10 to 100", "unit": "nM"}, {"measurement": "Emax", "setting": "GIP receptor [2]", "value": 102, "unit": "%"}, {"measurement": "EC50", "setting": "GIP receptor [3]", "value": "> 1000", "unit": "nM"}, {"measurement": "EC50", "setting": "GLP-1 receptor [4]", "value": "> 1000", "unit": "nM"}]}]}
